The values that follow come from patent EP2257297B1, “COMPOUNDS FOR USE IN THE TREATMENT OF ACNE, SEBORRHOEA AND SEBHORROEIC DERMATITIS, OR FOR REDUCING SEBUM SECRETION” (priority 2008, dated 2009).

A value given as a limit tells only on which side of the number the result lay.

The target of one experiment is T1, human MC5R (Homo sapiens, UniProt P33032).
T1 construct: purchased Perkin Elmer RBXMC5M400UA
T1 sequence (P33032 whole entry): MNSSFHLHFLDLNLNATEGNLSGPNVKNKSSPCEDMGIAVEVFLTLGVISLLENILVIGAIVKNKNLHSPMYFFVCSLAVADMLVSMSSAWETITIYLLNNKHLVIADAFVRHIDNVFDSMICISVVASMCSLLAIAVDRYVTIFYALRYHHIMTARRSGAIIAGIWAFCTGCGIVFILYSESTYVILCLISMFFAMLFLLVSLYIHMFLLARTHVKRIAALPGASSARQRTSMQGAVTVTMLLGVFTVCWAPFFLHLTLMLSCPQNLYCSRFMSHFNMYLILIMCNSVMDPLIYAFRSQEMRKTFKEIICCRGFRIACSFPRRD
As to the kind of experiment: Human MC5R radioligand binding assay ([125I] NDP-MSH displacement, hMC5R membranes). Conditions: hMC5R assay as in Example 102; compounds tested as trifluoroacetate or hydrochloride salts, or as free base. The method, boiled down: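 Bound ligand collected by filtration on PEI-soaked GF/A filters and counted. Data fitted to a single-site competition model with fixed Hill coefficient to give EC50.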
A word on the IC50: it is the concentration that inhibits the measured activity by half. As for `CC(C)(C)c1ccc(C(=O)NC[C@@H]2CCN(CC(c3ccccc3)c3ccccc3)C(=O)[C@H](CCCNC(=N)N)N2)cc1` [Compound 145, 4-tert-butyl-N-(((3S,5S)-1-(2,2-diphenylethyl)-3-(3-guanidinopropyl)-2-oxo-1,4-diazepan-5-yl)methyl)benzamide], the IC50 is < 1000 nM.

As for `NCCC[C@@H]1N[C@H](CNC(=O)c2ccc3ccccc3c2)CCN(CC(c2ccccc2)c2ccccc2)C1=O` [Compound 63, N-(((3S,5S)-3-(3-aminopropyl)-1-(2,2-diphenylethyl)-2-oxo-1,4-diazepan-5-yl)methyl)-2-naphthamide], the IC50 was < 1000 nM.

With `N=C(N)NCCC[C@@H]1N[C@H](CNC(=O)/C=C/c2ccc(F)cc2)CCN(CC(c2ccccc2)c2ccccc2)C1=O` [Compound 199, (E)-N-(((3S,5S)-1-(2,2-diphenylethyl)-3-(3-guanidinopropyl)-2-oxo-1,4-diazepan-5-yl)methyl)-3-(4-fluorophenyl)acrylamide], the IC50 was < 100 nM.

For `O=C(NC[C@@H]1CCN(CC(c2ccccc2)c2ccccc2)C(=O)[C@H](CCCN2CCCCC2)N1)c1ccc(Cl)c(Cl)c1` [Compound 271, 3,4-dichloro-N-(((3S,5S)-1-(2,2-diphenylethyl)-2-oxo-3-(3-(piperidin-1-yl)propyl)-1,4-diazepan-5-yl)methyl)benzamide], the IC50 was < 100 nM.

Regarding `N=C(N)NCCC[C@@H]1N[C@H](CNC(=O)CCc2ccccc2)CCN(CC(c2ccccc2)c2ccccc2)C1=O` [Compound 143, N-(((3S,5S)-1-(2,2-diphenylethyl)-3-(3-guanidinopropyl)-2-oxo-1,4-diazepan-5-yl)methyl)-3-phenylpropanamide], the IC50 is < 1000 nM.

For `N#Cc1ccc(/C=C/C(=O)NC[C@@H]2CCN(CC(c3ccccc3)c3ccccc3)C(=O)[C@H](CCCN)N2)cc1` [Compound 234, (E)-N-(((3S,5S)-3-(3-aminopropyl)-1-(2,2-diphenylethyl)-2-oxo-1,4-diazepan-5-yl)methyl)-3-(4-cyanophenyl)acrylamide], the IC50 was < 1000 nM.

As to `N=C(N)NCCC[C@@H]1N[C@H](CNC(=O)/C=C/c2ccccc2C(F)(F)F)CCN(CC(c2ccccc2)c2ccccc2)C1=O` [Compound 172, (E)-N-(((3S,5S)-1-(2,2-diphenylethyl)-3-(3-guanidinopropyl)-2-oxo-1,4-diazepan-5-yl)methyl)-3-(2-(trifluoromethyl)phenyl)acrylamide], the IC50 was < 1000 nM.

Take `NC(=O)CC[C@@H]1N[C@H](CNC(=O)/C=C/c2ccc(Cl)cc2)CCN(CC(c2ccccc2)c2ccccc2)C1=O` [Compound 298, (E)-N-(((3S,5S)-3-(3-amino-3-oxopropyl)-1-(2,2-diphenylethyl)-2-oxo-1,4-diazepan-5-yl)methyl)-3-(4-chlorophenyl)acrylamide]: the IC50 is < 1000 nM.

As to `CNCCC[C@@H]1N[C@H](CNC(=O)c2ccc3ccccc3c2)CCN(CC(c2ccccc2)c2ccccc2)C1=O` [Compound 71, N-(((3S,5S)-1-(2,2-diphenylethyl)-3-(3-(methylamino)propyl)-2-oxo-1,4-diazepan-5-yl)methyl)-2-naphthamide], the IC50 is < 1000 nM.

Turning to `O=C(NC[C@@H]1CCN(Cc2cc(Cl)cc(Cl)c2)C(=O)[C@H](CN2CCCC2)N1)c1ccc2ccccc2c1` [Compound 372, N-(((3S,5S)-1-(3,5-dichlorobenzyl)-2-oxo-3-(pyrrolidin-1-ylmethyl)-1,4-diazepan-5-yl)methyl)-2-naphthamide], the IC50 is < 1000 nM.

Turning to `Cc1ccc(/C=C/C(=O)NC[C@@H]2CCN(CC(c3ccccc3)c3ccccc3)C(=O)[C@H](CCN)N2)cc1` [Compound 277, (E)-N-(((3S,5S)-3-(2-aminoethyl)-1-(2,2-diphenylethyl)-2-oxo-1,4-diazepan-5-yl)methyl)-3-p-tolylacrylamide], the IC50 is < 100 nM.

For the molecule `NCC[C@@H]1N[C@H](CNC(=O)c2ccc(Cl)c(Cl)c2)CCN(Cc2cc(Cl)cc(Cl)c2)C1=O` [Compound 325, N-(((3S,5S)-3-(2-aminoethyl)-1-(3,5-dichlorobenzyl)-2-oxo-1,4-diazepan-5-yl)methyl)-3,4-dichlorobenzamide], the IC50 was < 1000 nM.

With `NCCC[C@@H]1N[C@H](CNC(=O)/C=C/c2ccc(Br)cc2)CCN(CC(c2ccccc2)c2ccccc2)C1=O` [Compound 260, (E)-N-(((3S,5S)-3-(3-aminopropyl)-1-(2,2-diphenylethyl)-2-oxo-1,4-diazepan-5-yl)methyl)-3-(4-bromophenyl)acrylamide], the IC50 was < 100 nM.

Regarding `N=C(N)NCCC[C@@H]1N[C@H](CNC(=O)/C=C/c2ccccc2Cl)CCN(CC(c2ccccc2)c2ccccc2)C1=O` [Compound 189, (E)-3-(2-chlorophenyl)-N-(((3S,5S)-1-(2,2-diphenylethyl)-3-(3-guanidinopropyl)-2-oxo-1,4-diazepan-5-yl)methyl)acrylamide], the IC50 is < 1000 nM.

For `CCC(CC)CN1CC[C@@H](CNC(=O)c2ccc(Cl)c(Cl)c2)N[C@@H](CCN)C1=O` [Compound 346, N-(((3S,5S)-3-(2-aminoethyl)-1-(2-ethylbutyl)-2-oxo-1,4-diazepan-5-yl)methyl)-3,4-dichlorobenzamide], the IC50 was < 1000 nM.

As for `O=C(/C=C/c1ccc(Cl)cc1)NC[C@@H]1CCN(CC(c2ccccc2)c2ccccc2)C(=O)[C@H](CCNC(=O)C2CCCCC2)N1` [Compound 306, N-(2-((2S,7S)-7-(((E)-3-(4-chlorophenyl)acrylamido)methyl)-4-(2,2-diphenylethyl)-3-oxo-1,4-diazepan-2-yl)ethyl)cyclohexanecarboxamide], the IC50 is < 1000 nM.

In the case of `N=C(N)NCCC[C@@H]1N[C@H](CNC(=O)c2cc3ccccc3[nH]2)CCN(CC(c2ccccc2)c2ccccc2)C1=O` [Compound 142, N-(((3S,5S)-1-(2,2-diphenylethyl)-3-(3-guanidinopropyl)-2-oxo-1,4-diazepan-5-yl)methyl)-1H-indole-2-carboxamide], the IC50 is < 100 nM.

For the molecule `N=C(N)NCCC[C@@H]1N[C@H](CNC(=O)COc2ccccc2)CCN(CC(c2ccccc2)c2ccccc2)C1=O` [Compound 162, N-(((3S,5S)-1-(2,2-diphenylethyl)-3-(3-guanidinopropyl)-2-oxo-1,4-diazepan-5-yl)methyl)-2-phenoxyacetamide], the IC50 was < 10000 nM.

Consider `NCC[C@@H]1N[C@H](CNC(=O)/C=C/c2ccc(Cl)cc2)CCN(CC(c2ccccc2)c2ccccc2)C1=O` [Compound 283, (E)-N-(((3S,5S)-3-(2-aminoethyl)-1-(2,2-diphenylethyl)-2-oxo-1,4-diazepan-5-yl)methyl)-3-(4-chlorophenyl)acrylamide], for which the IC50 is < 100 nM.

As for `NCCC[C@@H]1N[C@H](CNC(=O)/C=C/c2ccc(F)cc2)CCN(CC(c2ccccc2)c2ccccc2)C1=O` [Compound 220, (E)-N-(((3S,5S)-3-(3-aminopropyl)-1-(2,2-diphenylethyl)-2-oxo-1,4-diazepan-5-yl)methyl)-3-(4-fluorophenyl)acrylamide], the IC50 is < 100 nM.

`Cc1c(C(=O)NC[C@@H]2CCN(CC(c3ccccc3)c3ccccc3)C(=O)[C@H](CCCNC(=N)N)N2)cnn1-c1ccccc1` [Compound 186, N-(((3S,5S)-1-(2,2-diphenylethyl)-3-(3-guanidinopropyl)-2-oxo-1,4-diazepan-5-yl)methyl)-5-methyl-1-phenyl-1H-pyrazole-4-carboxamide]: the IC50 was < 100 nM.

Regarding `NCCC[C@@H]1N[C@H](CNC(=O)c2ccc(-c3ccc(Cl)cc3)o2)CCN(CC(c2ccccc2)c2ccccc2)C1=O` [Compound 237, N-(((3S,5S)-3-(3-aminopropyl)-1-(2,2-diphenylethyl)-2-oxo-1,4-diazepan-5-yl)methyl)-5-(4-chlorophenyl)furan-2-carboxamide], the IC50 is < 100 nM.

For the molecule `NCC[C@@H]1N[C@H](CNC(=O)/C=C/c2ccc(Cl)cc2)CCN(Cc2cc(Cl)cc(Cl)c2)C1=O` [Compound 326, (E)-N-(((3S,5S)-3-(2-aminoethyl)-1-(3,5-dichlorobenzyl)-2-oxo-1,4-diazepan-5-yl)methyl)-3-(4-chlorophenyl)acrylamide], the half-inhibitory concentration (IC50) is < 100 nM.

As to `O=C(NCC[C@@H]1CCN(CC(c2ccccc2)c2ccccc2)C(=O)[C@H](CCN2CCCCC2)N1)c1ccc(Cl)c(Cl)c1` [Compound 312, 3,4-dichloro-N-(2-((3S,5R)-1-(2,2-diphenylethyl)-2-oxo-3-(2-(piperidin-1-yl)ethyl)-1,4-diazepan-5-yl)ethyl)benzamide], the IC50 was < 1000 nM.

As for `CCC(CN1CC[C@@H](CNC(=O)c2ccc(Cl)c(Cl)c2)N[C@@H](CCN)C1=O)c1ccccc1` (stereo partly drawn) [Compound 369, N-(((3S,5S)-3-(2-aminoethyl)-2-oxo-1-(2-phenylbutyl)-1,4-diazepan-5-yl)methyl)-3,4-dichlorobenzamide], the IC50 is < 1000 nM.

Take `NCCC[C@@H]1N[C@H](CNC(=O)/C=C/c2ccc(F)cc2F)CCN(CC(c2ccccc2)c2ccccc2)C1=O` [Compound 233, (E)-N-(((3S,5S)-3-(3-aminopropyl)-1-(2,2-diphenylethyl)-2-oxo-1,4-diazepan-5-yl)methyl)-3-(2,4-difluorophenyl)acrylamide]: the IC50 was < 100 nM.

Consider `O=C(/C=C/c1ccc(Cl)cc1)NC[C@@H]1CCN(CC(c2ccccc2)c2ccccc2)C(=O)[C@H](CCNC(=O)CC2CCCCC2)N1` [Compound 307, (E)-3-(4-chlorophenyl)-N-(((3S,5S)-3-(2-(2-cyclohexylacetamido)ethyl)-1-(2,2-diphenylethyl)-2-oxo-1,4-diazepan-5-yl)methyl)acrylamide], for which the IC50 was < 1000 nM.

Staying with this experiment, now noted: hMC5R binding assay as in Example 102; compounds tested as trifluoroacetate or hydrochloride salts, or as free base.
As to `CC[C@H](CN1CC[C@H](CNC(=O)c2ccc3cc(Cl)ccc3c2)N[C@H](CCN2CCCCC2)C1=O)c1ccccc1` [Compound 585, 6-chloro-N-(((3R,5R)-2-oxo-1-((S)-2-phenylbutyl)-3-(2-(piperidin-1-yl)ethyl)-1,4-diazepan-5-yl)methyl)-2-naphthamide], the IC50 is < 10000 nM.
